For two compounds, IC50 results are on record in BindingDB's records for doi:10.1016/j.bmc.2009.07.009 (Universita Degli Studi Di Milano, 2009).

This assay has as its target XIAP (Homo sapiens). The assay can be described thus: Fluorescence polarization was measured on an Ultra plate reader (Tecan) at excitation and emission wavelengths of 485 and 530 nm, respectively. The equilibrium binding curves were drawn by plotting millipolarization units (mP) as a function of recombinant XIAP concentration. All experiments were performed in black, flat-bottomed, 96-well mic. The note with it: pH 7.5. A general note: In fluorescence polarisation assays a small probe gives low polarisation when free and higher when bound to something large.

Turning to `CC[C@H](N)C(=O)N[C@@H]1C(=O)N2[C@@H](CC[C@@H]1COC(=O)c1ccccc1)CC[C@H]2C(=O)NC(c1ccccc1)c1ccccc1` [1-aza-2-oxobicyclo[5.3.0]decane scaffold, 12b], the IC50 (commonly the midpoint of a concentration-inhibition curve) came out at 600 nM. As for `CC[C@H](N)C(=O)N[C@@H]1C(=O)N2[C@@H](CC[C@@H]1CCN)CC[C@H]2C(=O)NC(c1ccccc1)c1ccccc1` [(3S,6S,7R,9aS)-6-[(2S)-2-aminobutanamido]-7-(2-aminoethyl)-N-(diphenylmethyl)-5-oxo-octahydro-1H-pyrrolo[1,2-a]azepine-3-carboxamide], the concentration for half-maximal inhibition (IC50) was found to be 250 nM.
